Assay results: patent US8394776B2, “Use of ursolic acid saponin,oleanolic acid saponin in preparation of increasing leucocytes and/or platelet medicine” (Chengdu Di'Ao Jiuhong Pharmaceutical Factor, priority 2007, dated 2013)

Legend:
leucocytes = details: administrated through abdominal cavity; 25, 50 and 100 mg/kg; effect obvious at high dose; cited from earlier work
leukocytes (WBC) = test: Cyclophosphamide-induced leukopenia in mice: leukocytes (WBC); format: in vivo, Kunming mice; details: Experimental Example 2, 0.8 mg/kg; for leukocytes (WBC), Day1 after modeling: CY 100 mg/kg x 3 days
Experimental: Further, in vivo experiments were carried out on the compounds involved in the present invention using animal models of cyclophosphamide-induced leukopenia in mice. Experimental methods are briefed as follows: Healthy Kunming mice, of which half were male and the other half were female, were divided into groups, each group incuding 18 mice, and those mice weighing 18-22 g were selected and divided into groups randomly according to their body weights. Each group was given a different drug, wherein the negative control group and model control group were given physiological saline of the same volume, and the positive control group was treated with granulocyte colony-stimulating factors 40 μg/kg through subcutaneous injection (injection volume: 0.1 ml/10 g). After administration for 3 days, except the negative control group, other treatment groups were treated with 100 mg/kg cyclophosphamide (CY) through lumbar injection once a day for three days to cause a decrease of leukocytes in mice. A drop of blood (20 μl) was taken from posterior orbital venous plexus to detect the hemogram to observe the situation of leukocytes and platelets on day 1, day 3 and/or day 5 after the final lumbar injection of cyclophosphamide (i.e day 1, day 3 and/or day 5 after modeling) (Note: Each treatment group was administrated incessantly). The mice were killed on day 5 after the final lumbar injection of cyclophosphamide (i.e day 5 after modeling), and the leukocytes (WBC) and platelets (PLT) of the hemogram index were counted.
This experiment mainly studies the effect of G-1, G-6 and G-8 of ursolic acid saponin in increasing leukocytes, and compares the therapeutic effects of aglycon of ursolic acid and oleanolic acid and of the compound G-22 which has been disclosed by a patent.
The purpose of this experiment is to study the effect of G-1, G-3, G-11 and G-12 of ursolic acid saponin and oleanolic acid saponin in increasing platelets, and to observe whether G-11 and G-12 of oleanolic acid saponin have an effect in increasing leukocytes.

[1] = test system: bone marrow mononuclear cell (BMMNC); test: Monocytic proliferation in bone marrow of mice cultured in vitro (SRB method); format: cell-based, KunMing mice; details: 1 μg/ml; cultured 5 days; versus blank control
From the text: 15-20 KunMing mice (purchased from Laboratory Animal Center of Zhengzhou University, Henan) of either sex were killed by cervical vertebral dislocation. Bilateral thighbones were isolated and caput femoris was cut off. The marrow was washed repeatedly with serum-free RPMI1640 (Gibco Corp.), the wash solution containing marrow cells was collected, sucked and blew repeatedly with a pipette to make the cells disperse. After standing for a moment, the supernatant was sucked up and centrifugated at 100 g for 3 min to collect the cell pellet. The cells were resuspended in a culture media and brought to a volume of 5 ml. The cell suspension was added to the upper layer of a centrifugal tube containing 5 ml of a lymphocyte separation medium of mice and centrifugated at 400 g for 30 min. The milk-white bone marrow mononuclear cell (BMMNC) layer in the middle of the interface was collected and washed with serum-free medium RPMI1640 for three times to obtain a BMMNC suspension, which was inoculated into a 96-well plate at forty thousand per well after counting. Positive drugs rhG-CSF (recombinant granulocyte colony-stimulating factor, manufactured by QI LU Pharmaceutical Co., LTD., Shandong) or test samples of different concentrations were added, and meanwhile a blank control group without drug was established. They were cultured in a 5% CO2 incubator at 37 for 5 days. Cell proliferation was measured by a conventional SRB (Sigma) method in which OD at 490 nm was measured after being dyed with SRB. The growth rates of cell proliferation after drug treatment were calculated (Growth rate of cell proliferation=experimental group-blank control group/blank control group*100%).

Row | Structure (SMILES) | effect in increasing leucocytes (in words) (leucocytes) | effect in increasing leukocytes (in words) (leukocytes (WBC)) | leukocytes (WBC), Day 3 after modeling (leukocytes (WBC)) | leukocytes (WBC), Day 5 after modeling (leukocytes (WBC)) | leukocytes (WBC), Day1 after modeling (leukocytes (WBC)) | Growth Rate of Proliferation %, 1 μg/ml [1]
1 | CC1(C)CC[C@]2(C(=O)O)CC[C@]3(C)C(=CC[C@@H]4[C@@]5(C)CC[C@H](O)C(C)(C)[C@@H]5CC[C@]43C)[C@@H]2C1 [Sample G-20, oleanolic acid] | effective in increasing leucocytes | no obvious effect in increasing leukocytes | 3.88 ± 2.01 | 7.00 ± 3.22 | 0.99 ± 0.40 | 4.5%
2 | C[C@H]1[C@H](C)CC[C@]2(C(=O)O)CC[C@]3(C)C(=CC[C@@H]4[C@@]5(C)CC[C@H](O)C(C)(C)[C@@H]5CC[C@]43C)[C@H]12 [Sample G-21, ursolic acid] | effective in increasing leucocytes | no obvious effect in increasing leukocytes | 3.94 ± 1.73 | 7.07 ± 3.14 | 1.01 ± 0.47 | 7.9%
